Assay [1] has as its system Toxoplasma gondii. In words: Antiparasitic activity Toxoplasma gondii RH infected Swiss albino mouse assessed as megakaryocytes in host spleen at 0.25 mg, po administered 48 hr post-infection measured after 3 days by haematoxylin and eosin staining relative to control. The assay is classed as functional, organism-based.
In a further assay the target is T1, Dihydrofolate reductase (Homo sapiens, UniProt P00374).
T1 sequence (P00374 whole entry): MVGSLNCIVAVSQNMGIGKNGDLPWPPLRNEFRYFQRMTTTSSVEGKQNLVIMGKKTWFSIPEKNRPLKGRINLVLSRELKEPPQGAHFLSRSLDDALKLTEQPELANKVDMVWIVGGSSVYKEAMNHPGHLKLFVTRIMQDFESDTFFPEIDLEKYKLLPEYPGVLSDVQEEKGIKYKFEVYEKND
In words: Inhibition of Homo sapiens (human) dihydrofolate reductase using dihydrofolate as substrate incubated for 5 min prior to substrate addition by spectrophotometric assay.

The subject of assay [2] is Toxoplasma gondii. In words: Antiparasitic activity Toxoplasma gondii RH infected Swiss albino mouse assessed as parasite deformity in host peritoneal exudate at 0.25 mg, po administered 48 hr post-infection measured after 3 days by light microscopic analysis. In kind it is functional, organism-based.
For assay [3], the target named is T2, Bifunctional dihydrofolate reductase-thymidylate synthase (Cryptosporidium parvum, UniProt Q27552).
T2 sequence (Q27552 whole entry): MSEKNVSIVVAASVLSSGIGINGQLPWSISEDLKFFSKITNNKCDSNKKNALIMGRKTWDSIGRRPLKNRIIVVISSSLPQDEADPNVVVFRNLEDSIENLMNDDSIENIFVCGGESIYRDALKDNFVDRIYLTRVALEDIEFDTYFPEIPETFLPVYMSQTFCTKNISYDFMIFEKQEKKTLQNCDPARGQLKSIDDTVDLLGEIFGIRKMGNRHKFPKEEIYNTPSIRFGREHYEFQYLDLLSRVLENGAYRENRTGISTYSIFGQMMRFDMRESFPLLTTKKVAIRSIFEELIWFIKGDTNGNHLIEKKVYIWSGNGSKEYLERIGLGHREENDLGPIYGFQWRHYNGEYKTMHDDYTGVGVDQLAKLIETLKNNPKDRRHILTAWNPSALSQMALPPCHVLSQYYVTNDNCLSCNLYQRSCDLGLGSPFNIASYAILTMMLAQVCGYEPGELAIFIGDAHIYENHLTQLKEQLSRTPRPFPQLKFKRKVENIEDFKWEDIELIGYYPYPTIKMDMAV
In words: Inhibition of Cryptosporidium parvum recombinant DHFR using dihydrofolate as substrate incubated for 5 min prior to substrate addition by spectrophotometric assay.

Assay [4] relates to Toxoplasma gondii. In words: Antiparasitic activity Toxoplasma gondii RH infected Swiss albino mouse assessed as decrease in host spleen white pulp at 0.25 mg, po administered 48 hr post-infection measured after 3 days by haematoxylin and eosin staining relative to control. The assay is classed as functional, organism-based.
For assay [5], the system named is Toxoplasma gondii. The assay is described as follows: Antiparasitic activity Toxoplasma gondii RH infected Swiss albino mouse assessed as increase in host spleen red pulp at 0.25 mg, po administered 48 hr post-infection measured after 3 days by haematoxylin and eosin staining relative to control. The assay is classed as functional, organism-based.
For assay [6], the system named is Toxoplasma gondii. The assay is described as follows: Antiparasitic activity Toxoplasma gondii RH infected Swiss albino mouse assessed as decrease in host lung congestion at 0.25 mg, po administered 48 hr post-infection measured after 3 days by haematoxylin and eosin staining relative to control. In kind it is functional, organism-based.
The subject of assay [7] is Toxoplasma gondii. The assay is described as follows: Antiparasitic activity Toxoplasma gondii RH infected Swiss albino mouse assessed as epethelioid granuloma in host spleen at 0.25 mg, po administered 48 hr post-infection measured after 3 days by haematoxylin and eosin staining relative to control. The assay is classed as functional, organism-based.
In assay [8] the test system is Toxoplasma gondii. The assay is described as follows: Antiparasitic activity Toxoplasma gondii RH infected Swiss albino mouse assessed as clear mononuclear cells in host liver focal granuloma at 0.25 mg, po administered 48 hr post-infection measured after 3 days by haematoxylin and eosin staining relative to control. The assay is classed as functional, organism-based.

Assay [9] concerns Toxoplasma gondii. The assay is described as follows: Antiparasitic activity Toxoplasma gondii RH infected Swiss albino mouse assessed as decrease in host spleen necrosis at 0.25 mg, po administered 48 hr post-infection measured after 3 days by haematoxylin and eosin staining relative to control. In kind it is functional, organism-based.
Assay [10] relates to Toxoplasma gondii. In words: Antiparasitic activity Toxoplasma gondii RH infected Swiss albino mouse assessed as extramedullary hematopoiesis in host spleen at 0.25 mg, po administered 48 hr post-infection measured after 3 days by haematoxylin and eosin staining relative to control. In kind it is functional, organism-based.
The test system of assay [11] is Toxoplasma gondii. The assay is described as follows: Antiparasitic activity Toxoplasma gondii RH infected Swiss albino mouse assessed as decrease in interstitial pneumonia at 0.25 mg, po administered 48 hr post-infection measured after 3 days by haematoxylin and eosin staining relative to control. In kind it is functional, organism-based.
For assay [12], the system named is Toxoplasma gondii. In words: Antiparasitic activity Toxoplasma gondii RH infected Swiss albino mouse assessed as decrease in Toxoplasma antigen in host serum at 0.25 mg, po administered 48 hr post-infection measured after 3 days by Co-A test relative to control. In kind it is functional, organism-based.
Assay [13] concerns Toxoplasma gondii. In words: Antiparasitic activity against Toxoplasma gondii RH infected Swiss albino mouse assessed as decrease in tachozyte count in liver at 0.25 mg, po administered 48 hr post-infection measured after 3 days by Geimsa staining relative to control. In kind it is functional, organism-based.
In assay [14] the test system is Toxoplasma gondii. In words: Antiparasitic activity Toxoplasma gondii RH infected Swiss albino mouse assessed as decrease in host liver necrosis at 0.25 mg, po administered 48 hr post-infection measured after 3 days by haematoxylin and eosin staining relative to control. The assay is classed as functional, organism-based.
Assay [15] has as its system Toxoplasma gondii. The assay is described as follows: Antiparasitic activity Toxoplasma gondii RH infected Swiss albino mouse assessed as clear lymphocytes in host liver focal granuloma at 0.25 mg, po administered 48 hr post-infection measured after 3 days by haematoxylin and eosin staining relative to control. The assay is classed as functional, organism-based.
Assay [16] concerns Toxoplasma gondii. The assay is described as follows: Antiparasitic activity Toxoplasma gondii RH infected Swiss albino mouse assessed as decreased parasite movement in host peritoneal exudate at 0.25 mg, po administered 48 hr post-infection measured after 3 days by light microscopic analysis. The assay is classed as functional, organism-based.
The subject of assay [17] is Toxoplasma gondii. The assay is described as follows: Antiparasitic activity against Toxoplasma gondii RH infected Swiss albino mouse assessed as decrease in tachozyte count in spleen at 0.25 mg, po administered 48 hr post-infection measured after 3 days by Geimsa staining relative to control. In kind it is functional, organism-based.

Molecules are shown by their SMILES. Active and inactive are the calls of the source. The calls are words filed in the database; no cut-off is given here.

Regarding `CCOC(=O)CSC1=NC(c2ccccc2)C(C(=O)OCC)=C(C)N1` (configuration not stated), the result in the assay on Toxoplasma gondii [1], with Toxoplasma gondii [2], in the assay with Toxoplasma gondii [4], in the assay with Toxoplasma gondii [5], in the assay on Toxoplasma gondii [6] and in the assay on Toxoplasma gondii [7] was inactive. Moreover, the result with Toxoplasma gondii [8], with Toxoplasma gondii [9], in the assay with Toxoplasma gondii [10], in the assay on Toxoplasma gondii [11], in the assay on Toxoplasma gondii [12] and with Toxoplasma gondii [13] was inactive. In addition, the outcome in the assay on Toxoplasma gondii [14], in the assay on Toxoplasma gondii [15], in the assay on Toxoplasma gondii [16] and in the assay with Toxoplasma gondii [17] was inactive. The IC50 (commonly the concentration needed to halve the response being measured) was found to be 830 nM on Dihydrofolate reductase and 3.2 µM in [3].

Turning to `CCOC(=O)C1=C(C)NC(=S)NC1c1ccccc1OC` (configuration not stated), the result with Toxoplasma gondii [1], in the assay with Toxoplasma gondii [2], in the assay with Toxoplasma gondii [4], with Toxoplasma gondii [5], with Toxoplasma gondii [6] and with Toxoplasma gondii [7] was inactive. Moreover, the result in the assay with Toxoplasma gondii [8], in the assay on Toxoplasma gondii [9], with Toxoplasma gondii [10], in the assay with Toxoplasma gondii [11], with Toxoplasma gondii [12] and in the assay on Toxoplasma gondii [13] was inactive. For the same compound, the result with Toxoplasma gondii [14], in the assay with Toxoplasma gondii [15], with Toxoplasma gondii [16] and in the assay with Toxoplasma gondii [17] was inactive. Further, the concentration for half-maximal inhibition (IC50) was determined as 1900 nM at Dihydrofolate reductase and 2.4 µM in assay [3].

As to `CCOC(=O)CSC1=NC(c2ccccc2OC)C(C(=O)OCC)=C(C)N1` (configuration not stated), the result in the assay on Toxoplasma gondii [1], in the assay with Toxoplasma gondii [2], in the assay with Toxoplasma gondii [4], in the assay on Toxoplasma gondii [5], with Toxoplasma gondii [6] and in the assay with Toxoplasma gondii [7] was inactive. Moreover, the outcome in the assay on Toxoplasma gondii [8], in the assay on Toxoplasma gondii [9], in the assay with Toxoplasma gondii [10], with Toxoplasma gondii [11], with Toxoplasma gondii [12] and in the assay on Toxoplasma gondii [13] was inactive. In addition, the outcome with Toxoplasma gondii [14], in the assay on Toxoplasma gondii [15], in the assay on Toxoplasma gondii [16] and in the assay on Toxoplasma gondii [17] was inactive. In addition, the half-maximal inhibitory concentration (IC50) on Dihydrofolate reductase is 7300 nM; in assay [3] it was 5.1 µM.

As for `COc1cc(Cc2cnc(N)nc2N)cc(OC)c1OC` [TRIMETHOPRIM], the half-maximal inhibitory concentration (IC50) in assay [3] was 4 µM.

In the case of `CCOC(=O)C1=C(C)NC(=S)NC1/C=C\c1ccccc1` (configuration not stated), the outcome with Toxoplasma gondii [1], with Toxoplasma gondii [2], with Toxoplasma gondii [4], in the assay with Toxoplasma gondii [5], with Toxoplasma gondii [6] and in the assay with Toxoplasma gondii [7] was inactive. Moreover, the outcome in the assay on Toxoplasma gondii [8], in the assay with Toxoplasma gondii [9], in the assay with Toxoplasma gondii [10], in the assay on Toxoplasma gondii [11], with Toxoplasma gondii [12] and with Toxoplasma gondii [13] was inactive. The outcome in the assay on Toxoplasma gondii [14], with Toxoplasma gondii [15], in the assay with Toxoplasma gondii [16] and with Toxoplasma gondii [17] was inactive. For the same compound, the half-inhibitory concentration (IC50) is 2900 nM on Dihydrofolate reductase and 2.1 µM in assay [3].

`CCOC(=O)C1=C(C)N=C(SCC(=O)c2ccc(Cl)c([N+](=O)[O-])c2)NC1c1ccccc1` (configuration not stated): the result in the assay on Toxoplasma gondii [1], with Toxoplasma gondii [2], in the assay with Toxoplasma gondii [4], in the assay on Toxoplasma gondii [5], in the assay on Toxoplasma gondii [6] and in the assay on Toxoplasma gondii [7] was inactive. The outcome in the assay with Toxoplasma gondii [8], in the assay on Toxoplasma gondii [9], in the assay on Toxoplasma gondii [10], in the assay with Toxoplasma gondii [11], with Toxoplasma gondii [12] and with Toxoplasma gondii [13] was inactive. Further, the result in the assay on Toxoplasma gondii [14], in the assay with Toxoplasma gondii [15], with Toxoplasma gondii [16] and with Toxoplasma gondii [17] was inactive. Also, the 50% inhibitory concentration (IC50) against Dihydrofolate reductase was determined as 3000 nM; in assay [3] it was 2.3 µM.

On to `CCOC(=O)C1=C(C)NC(=S)NC1c1ccccc1` (configuration not stated), for which the result in the assay on Toxoplasma gondii [1], in the assay with Toxoplasma gondii [2], in the assay with Toxoplasma gondii [4], in the assay with Toxoplasma gondii [5], in the assay on Toxoplasma gondii [6] and in the assay with Toxoplasma gondii [7] was inactive. Further, the result in the assay on Toxoplasma gondii [8], in the assay on Toxoplasma gondii [9], in the assay on Toxoplasma gondii [10], with Toxoplasma gondii [11], with Toxoplasma gondii [12] and in the assay on Toxoplasma gondii [13] was inactive. Also, the result with Toxoplasma gondii [14], with Toxoplasma gondii [15], in the assay with Toxoplasma gondii [16] and in the assay on Toxoplasma gondii [17] was inactive. The IC50 against Dihydrofolate reductase was 580 nM; in assay [3], 4.7 µM.

With `CC(=O)C1=C(C)NC(=S)NC1c1cccc(O)c1` (configuration not stated), the outcome in the assay with Toxoplasma gondii [1], in the assay with Toxoplasma gondii [2], in the assay with Toxoplasma gondii [4], in the assay on Toxoplasma gondii [5], in the assay on Toxoplasma gondii [6] and in the assay on Toxoplasma gondii [7] was inactive. Besides, the result in the assay with Toxoplasma gondii [8], in the assay on Toxoplasma gondii [9], in the assay with Toxoplasma gondii [10], in the assay on Toxoplasma gondii [11], in the assay on Toxoplasma gondii [12] and in the assay on Toxoplasma gondii [13] was inactive. Besides, the outcome in the assay with Toxoplasma gondii [14], in the assay on Toxoplasma gondii [15], in the assay on Toxoplasma gondii [16] and in the assay with Toxoplasma gondii [17] was inactive. Also, the concentration for half-maximal inhibition (IC50) against Dihydrofolate reductase was 9400 nM; in assay [3], 7.6 µM.

The record behind these values is ChEMBL document CHEMBL3045961, “Synthesis and evaluation of some pyrimidine analogs against toxoplasmosis” (Med Chem Res, 2008).
